In ChEMBL document CHEMBL4020724, “Selective HDAC inhibitors with potent oral activity against leukemia and colorectal cancer: Design, structure-activity relationship and anti-tumor activity study” (Eur J Med Chem, 2017):
Activity calls are given as the source filed them. The calls are words filed in the database; no cut-off is given here.

Experiments:
HL-60 [1] = assay: Induction of apoptosis in human HL60 cells assessed as decrease in procaspase-3 level at 5 uM after 48 hrs by Western blot analysis; assay type: functional, cell-based
Mus musculus [2] = assay: Toxicity in BALB/c nude mouse xenografted with human U937 cells assessed as body weight at 50 mg/kg/day administered via oral gavage for 13 days (reference value: 25.39 +/- 1.18 g); assay type: organism-based; settings: in vivo, 312 h
U-937 [3] = assay: Antitumor activity against human U937 cells xenografted in BALB/c nude mouse assessed as relative tumor increment ratio at 50 mg/kg/day administered via oral gavage for 13 days measured every 3 days; assay type: functional
HCT-116 [4] = assay: Antitumor activity against human HCT116 cells xenografted in BALB/c nude mouse assessed as relative tumor increment ratio at 50 mg/kg/day administered via oral gavage for 16 days measured every 3 days; assay type: functional
HCT-116 [5] = assay: Antitumor activity against human HCT116 cells xenografted in BALB/c nude mouse assessed as tumor growth inhibition at 50 mg/kg/day administered via oral gavage for 16 days measured every 3 days; assay type: functional; settings: HCT-116, po, read-out: TGI
Mus musculus [6] = assay: Toxicity in BALB/c nude mouse xenografted with human HCT116 cells assessed as body weight at 50 mg/kg/day administered via oral gavage for 16 days (reference value: 19.91 +/- 1.26 g); assay type: organism-based; settings: in vivo, 384 h
cells = settings: Homo sapiens, ES-2, 48 h
Description: Antiproliferative activity against human ES2 cells after 48 hrs by MTT assay

[7] = Inhibition of class 1 HDAC in human HL60 cells using Boc-Ac-Lys-AMC as substrate incubated for 3 hrs followed by substrate addition measured after 3 hrs by fluorescence assay; assay type: cell-based; settings: HL-60, 3 h
HL-60 [8] = assay: Induction of apoptosis in human HL60 cells assessed as increase in cleaved PARP level at 5 uM after 48 hrs by Western blot analysis; assay type: functional, cell-based
Mus musculus [9] = assay: Toxicity in BALB/c nude mouse xenografted with human U937 cells assessed as body weight loss at 50 mg/kg/day administered via oral gavage for 13 days; settings: in vivo, 312 h
U-937 [10] = assay: Antitumor activity against human U937 cells xenografted in BALB/c nude mouse assessed as tumor growth inhibition at 50 mg/kg/day administered via oral gavage for 13 days measured every 3 days; assay type: functional; settings: U-937, po, read-out: TGI
HL-60 [11] = assay: Induction of apoptosis in human HL60 cells assessed as increase in cleaved caspase-3 level at 5 uM after 48 hrs by Western blot analysis; assay type: functional, cell-based

Structure (SMILES): Nc1ccccc1NC(=O)c1ccc(CNC(=O)OCc2cccnc2)cc1 [ENTINOSTAT]
- Activity (HL-60 [1]): Active
- Activity (Mus musculus [2]): 19.77 g
- T/C (U-937 [3]): 32%
- T/C (HCT-116 [4]): 46%
- inhibition in vivo at 50 mg/kg/day (HCT-116 [5]): 62%
- Activity (Mus musculus [6]): 18.87 g
- IC50 (cells): > 20000 nM
- IC50 [7]: 620 nM
- Activity (HL-60 [8]): Active
- Activity (Mus musculus [9]): Toxic
- inhibition in vivo at 50 mg/kg/day (U-937 [10]): 60%
- Activity (HL-60 [11]): Active
